Measurements taken from US9809521B2, “Cannabidinoid derivatives” (priority 2011, dated 2017).
Like-named read-outs stand apart in the source and are kept apart here.

Assays:
4T1 cells [1] = experiment: Cell viability assay; assay type: cell-based, mouse; details: Mus musculus
Source text: (§1) The structure of O-1442 and O-1663 are almost identical with the exception of one R group. A smaller subset of the same analogs, including O-1442 and O-1663, were further screened for their ability to inhibit 4T1 breast cancer cell viability in anticipation of running in vivo experiments in immune competent mice (TABLE 5).

MDA-MB231 cells [2] = experiment: MTT cell proliferation/viability assay; details: for reversal of inhibition of cell viability by CB2 receptor antagonist SR14458: 2 days; for IC50: Homo sapiens
Source text: as §1
To directly test whether the O-1663 CBD analog could co-target two distinct cannabinoid antitumor pathways, the effects of CBD and the O-1663 CBD analog on cell viability with multiple antagonists were probed (FIG. 25). […] The ability of the O-1663 CBD analog and CBD to inhibit invasion was next compared (FIG. 25, panel C).

4T1 cells [3] = experiment: In-vivo primary tumor proliferation (4T1 mammary fat pad, flank of Nude mice); parameters: species or system mouse; details: daily treatment from one week post injection
Experimental: In-vivo studies of breast and brain tumor formation with CBD. The compounds of the disclosure were effective in inhibiting tumor formation in an in-vivo model. Breast cancer 4T1 cells were subcutaneously injected into the mammary fat pad of BALBc mice (FIG. 8, Panel A), or into the flank of Nude mice (FIG. 8, Panel B). After one week post injection, the mice were treated daily (systemic in A, and peritumoral in B) with CBD […]. Primary tumor volume was then calculated by measuring the perpendicular largest diameters of the tumor with a caliper and using the formula (L×W^2/2).

Id-1 = experiment: Quantitative Western analysis of Id-1 expression in different types of cancer cells; assay type: cell-based
Experimental: Quantitative Western analysis of Id-1 expression in different types of cancer cells with or without CBD treatment. Quantitative Western analysis was performed to examine whether CBD would downregulate Id-1 protein expression in cell lines for breast, prostate, salivary gland, head and neck, and glioblastoma cell lines. […] For the salivary gland cancer cell line, ACCM, a higher concentration of CBD (2.5 μM) was required to see a significant downregulation in Id-1 expression (FIG. 13, panel C (left)).

U251 GBM cells = experiment: Intracranial U251 GBM xenograft in nu/nu mice; assay type: in vivo, mouse
Experimental: Effects of CBD on GBM cell invasion in In Vivo Studies. To determine whether CBD could inhibit GBM cell invasion through intact brain tissue, an organotypic brain slice assay was utilized. GFP-labeled U251 cells were treated for two days in culture with vehicle or CBD. On the third day, the cells were harvested and transferred to the top of a 0.5 mm coronal rat brain slice obtain from a postnatal day 3 rat pup. A porous cell culture insert containing the slice was suspended for three days in a well containing conditioned media with either vehicle or 1 μM CBD. […] GBM tumors were generated in nu/nu mice by intracranial injection of U251 GBM cells. […] CBD produced a robust reduction of GBM progression, decreasing the tumor area by 95% (FIG. 14, panels B and C). […] This occurred concomitantly with a decrease in tumor cell proliferation (the number of Ki67-positive nuclei was decreased by 87%±9 (p<0.0001, Student's t-test)) (FIG. 14, panel D).

Ki67 = experiment: Immunohistochemical detection of Ki67 in lung metastatic foci; assay type: in vivo, mouse; details: 1 mg/kg
Experimental: CBD down-regulates Id-1 expression and breast cancer cell proliferation in lung metastatic foci. […] Lung tissue from mice treated with vehicle or CBD (1 mg/kg) were evaluated for Id-1 expression and Ki67, a marker of cellular proliferation (FIG. 5, panel A).
Immunohistochemical detection of Id-1 and Ki67 was performed in lung tissues of vehicle and CBD treated mice. Nuclei were stained with hematoxylin. […] The intensity of the immunohistochemical (IHC) detection of Id-1 was then graded from 0 to 4.

p8 and LC3 = experiment: p8 mRNA and LC3 (autophagy marker) in MDA-MB231 cells; assay type: cell-based, human; details: two days
MDA-MB231 cells [4] = experiment: Xenograft mouse model of human breast cancer lung metastasis; assay type: in vivo
Experimental: In-vivo metastatic studies using a Xenograph mouse model for human breast cancer with CBD. […] Lung metastases were generated in Nude mice after tail vein injection of 1×10^6 MDA-MB231-luc-D3H2LN cells. One day after the injection, the tumor bearing mice were injected i.p. once a day with vehicle or 0.5 mg/kg and 1 mg/kg CBD for three weeks. Visible lung metastases were then counted and measured by using a dissecting microscope.

Id-1 promoter = Id-1 promoter luciferase reporter assay in MDA-MB231 cells; assay type: cell-based, human; details: 1.5 μM, 2 or 3 days
Experimental: Id-1 promoter reporter assays: A SacI-BspHI fragment of 2.2 kb corresponding to the 5′ upstream region of human Id-1 gene and driving a luciferase gene in a PGL-3 vector (Promega) was used (Id-1-sbsluc). Cells were plated in six well dishes in medium supplemented with 10% FBS and 5 μg/ml insulin. After 24 hours, cells were cotransfected with 6 μg of luciferase reporter plasmids and 2 μg of pCMVβ (Clontech) using Superfect reagent (Qiagen). pCMVβ contained bacterial β-galactosidase and served to control for variation in transfection efficiency. 3 hours after transfection, the cells were rinsed twice with PBS and were cultured in the absence or presence of CBD for 48-72 h. Cell pellets were lysed in 80 μl of reporter lysis buffer (Promega) for 10 min at room temperature. Lysed cells were centrifuged and supernatants harvested. Luciferase and β-gal assays were performed using Luciferase Assay System (Promega), β-Gal Assay Kit (Clontech) and a 2010 luminometer (Pharmingen).
Gene Expression Assays looking at Id-1 gene epression with CBD in MDA-MB231 cells. […] Twenty-four hours after transfection, MDA-MB231-Id-1-luc cells were treated with CBD for 2 or 3 days and luciferase activity was measured (FIG. 3, panel B and panel C). […] These findings correlated to the data obtained when the expression of the Id-1 protein was assessed by Western analysis.

[5] = MDA-MB-231, read-out: IC50, MDA-MB231

Compound: C=C(C)[C@@H]1CCC(C)=C[C@H]1c1c(O)cc(CCCCC)cc1O [CBD, cannabidiol]
- IC50 (4T1 cells [1]; 4T1, Table 5, read-out: IC50, 4T1 cell viability): 1.8 µM
- reversal of inhibition of cell viability by CB1 receptor antagonist (MDA-MB231 cells [2]; 4T1 and MDA-MB231 cells): had no effect on reversing the activity of CBD
- reversal of inhibition of cell viability by ROS scavenger α-TOC (MDA-MB231 cells [2]; 4T1 and MDA-MB231 cells): able to reverse the inhibitory effects of CBD
- reversal of inhibition of cell viability by CB2 receptor antagonist SR14458 (MDA-MB231 cells [2]; 4T1 and MDA-MB231 cells): not significant
- IC50 (MDA-MB231 cells [2]; MDA-MB-231, 72 h, read-out: IC50, antiproliferative, MDA-MB231): 1.3 µM
- IC50 (MDA-MB231 cells [2]; [5]): 2.2 µM
- IC50 (MDA-MB231 cells [2]; MDA-MB-231, read-out: IC50, MDA-MB231 cell viability): 1.9 µM
- tumor proliferation in-vivo (primary tumor volume) (4T1 cells [3]): potent inhibitor of tumor proliferation
- Id-1 protein expression in MDA-MB231, MDA-MB436, PC3, DU145, SAS, U251 and SF126 (Id-1; 1.5 μM): significant inhibition of Id-1 protein expression
- concentration required for significant downregulation in Id-1 expression, ACCM (Id-1; salivary gland cancer cell line ACCM): 2.5 µM
- mice in which no tumor cells were observed (U251 GBM cells; 15 mg/kg): one of the five mice
- decrease of tumor area (U251 GBM cells; 15 mg/kg i.p. 5 days a week for 28 days): 95%
- decrease in number of Ki67-positive nuclei (U251 GBM cells; 15 mg/kg, tumors responding to treatment): 87%±9
- Id-1 expression in tumors (U251 GBM cells; tumors responding to treatment): significant down-regulation of Id-1 expression
- Ki67 in metastatic foci (Ki67): significant down-regulation of Ki67
- up-regulation of p8 and LC3 (p8 and LC3): did not produce up-regulation of p8 and LC3
- reduction in the number of metastases (MDA-MB231 cells [4]; MDA-MB231-luc-D3H2LN, 0.5 mg/kg and 1 mg/kg i.p. for three weeks): ≥ 70%
- luciferase activity (Id-1 promoter) (Id-1 promoter): significant inhibition of luciferase activity

Compound: CCCCC(C)(C)c1cc(O)c(C2CCC(C3CCCCC3)CC2)c(O)c1 (stereo not drawn) [Compound O-1663]
- IC50 (4T1 cells [1]; 4T1, read-out: IC50, 4T1 cell viability): 0.83 µM
- reversal of inhibition of cell viability by CB2 receptor antagonist SR14458 (MDA-MB231 cells [2]; 4T1 and MDA-MB231 cells): partially reverse the inhibitory effects
- IC50 (MDA-MB231 cells [2]; [5]): 1.2 µM
- fold more active than CBD, MDA-MB231 cell viability (MDA-MB231 cells [2]; second screen): 2.2 fold
- up-regulation of p8 and LC3 (p8 and LC3): able to up-regulate p8 and the marker of autophagy LC3
- potency compared with CBD, human MDA-MB231 model of metastasis (MDA-MB231 cells [4]; i.p. daily six weeks): more potent than CBD
